The values below are quoted from earlier work in US20040009207A1, “Medicinal beverage containing molecular oxygen” (priority 2000, published 2004).

Structures are written as SMILES. Read-outs that look alike come from different tables or passages of the source.

In the case of `O=O` [O2, molecular oxygen], the “solubility of O2 in one litre water” value was 0.0491 L (0° C.) and 0.0209 L (50° C.).
